In ChEMBL document CHEMBL5579805, “Synthesis, antibacterial activity, and 3D-QASR studies of matrine-indole derivatives as potential antibiotics” (2024):
Values after ≈ are worked out from the molar mass of the structure shown.

How the values were obtained:
Type in all cases: functional
Staphylococcus aureus = experiment: Antibacterial activity against Staphylococcus aureus by two-fold dilution method; details: for MIC: Staphylococcus aureus
Cutibacterium acnes = experiment: Antibacterial activity against Propionibacterium acnes by two-fold dilution method
Pseudomonas aeruginosa = experiment: Antibacterial activity against Pseudomonas aeruginosa by two-fold dilution method
Escherichia coli = experiment: Antibacterial activity against Escherichia coli by two-fold dilution method
Candida albicans = experiment: […] activity against Candida albicans by two-fold dilution method; details: for MIC: Candida albicans

SMILES	-logMIC (Staphylococcus aureus)	MIC (Staphylococcus aureus) [µg/mL]	MIC (Cutibacterium acnes) [µg/mL]	MIC (Pseudomonas aeruginosa) [µg/mL]	MIC (Escherichia coli) [µg/mL]	-logMIC (Candida albicans)	MIC (Candida albicans) [µg/mL]
COC(=O)CCC[C@@H]1[C@H]2CCCN3CCC[C@@H](CN1C(=O)c1cc4ccc(Cl)cc4n1Cc1cccc(OCc4ccccc4)c1)[C@@H]23	0.932	0.117 (≈ 0.179 µM)	0.093 (≈ 0.142 µM)	0.975 (≈ 1.49 µM)	0.894 (≈ 1.37 µM)	-0.991	9.8 (≈ 15 µM)
COC(=O)CCC[C@@H]1[C@H]2CCCN3CCC[C@@H](CN1C(=O)c1cc4ccc(Cl)cc4n1Cc1ccc(F)cc1)[C@@H]23	0.035	0.923 (≈ 1.63 µM)	0.199 (≈ 0.352 µM)	0.806 (≈ 1.42 µM)	0.618 (≈ 1.09 µM)	-0.77	5.89 (≈ 10.4 µM)
COC(=O)CCC[C@@H]1[C@H]2CCCN3CCC[C@@H](CN1C(=O)c1cc4ccc(Cl)cc4n1Cc1cc(OC)ccc1Br)[C@@H]23	0.111	0.774 (≈ 1.18 µM)	0.175 (≈ 0.266 µM)	0.323 (≈ 0.492 µM)	0.933 (≈ 1.42 µM)	-0.997	9.92 (≈ 15.1 µM)
COC(=O)CCC[C@@H]1[C@H]2CCCN3CCC[C@@H](CN1C(=O)c1cc4ccc(Cl)cc4n1Cc1ccccc1C#N)[C@@H]23	0.319	0.48 (≈ 0.837 µM)	0.848 (≈ 1.48 µM)	0.693 (≈ 1.21 µM)	0.823 (≈ 1.44 µM)	-1.05	11.2 (≈ 19.6 µM)
COC(=O)CCC[C@@H]1[C@H]2CCCN3CCC[C@@H](CN1C(=O)c1cc4ccc(Cl)cc4n1Cc1cccc(C)c1)[C@@H]23	0.567	0.271 (≈ 0.482 µM)	0.305 (≈ 0.543 µM)	0.536 (≈ 0.953 µM)	1.3 (≈ 2.31 µM)	-1.06	11.6 (≈ 20.6 µM)
COC(=O)CCC[C@@H]1[C@H]2CCCN3CCC[C@@H](CN1C(=O)c1cc4ccc(Cl)cc4n1Cc1cc(C#N)ccc1F)[C@@H]23	0.587	3.86 (≈ 6.54 µM)	0.2 (≈ 0.338 µM)	0.658 (≈ 1.11 µM)	0.644 (≈ 1.09 µM)	-1.02	10.6 (≈ 17.9 µM)
COC(=O)CCC[C@@H]1[C@H]2CCCN3CCC[C@@H](CN1C(=O)c1cc4ccc(Cl)cc4n1Cc1ccc(C(C)(C)C)cc1)[C@@H]23	1.071	0.085 (≈ 0.141 µM)	1.33 (≈ 2.19 µM)	0.654 (≈ 1.08 µM)	1.22 (≈ 2.02 µM)	-1.26	18.1 (≈ 29.9 µM)
COC(=O)CCC[C@@H]1[C@H]2CCCN3CCC[C@@H](CN1C(=O)c1cc4ccc(Cl)cc4n1Cc1ccc(F)cc1Br)[C@@H]23	0.458	0.348 (≈ 0.54 µM)	0.351 (≈ 0.544 µM)	0.445 (≈ 0.69 µM)	1.04 (≈ 1.62 µM)	-0.942	8.74 (≈ 13.6 µM)
CC(C)(O/N=C(\C(=O)N[C@@H]1C(=O)N2C(C(=O)[O-])=C(C[n+]3ccccc3)CS[C@H]12)c1csc(N)n1)C(=O)O [CEFTAZIDIME]	–	–	–	0.042 (≈ 0.0768 µM)	–	–	–
COC(=O)CCC[C@@H]1[C@H]2CCCN3CCC[C@@H](CN1C(=O)c1cc4ccc(Cl)cc4n1Cc1cccc([N+](=O)[O-])c1)[C@@H]23	1.509	0.031 (≈ 0.0523 µM)	0.248 (≈ 0.418 µM)	0.387 (≈ 0.652 µM)	0.954 (≈ 1.61 µM)	-1.07	11.7 (≈ 19.7 µM)
COC(=O)CCC[C@@H]1[C@H]2CCCN3CCC[C@@H](CN1C(=O)c1cc4ccc(Cl)cc4n1Cc1ccc(-c4ccccc4)cc1)[C@@H]23	1.276	0.053 (≈ 0.0849 µM)	0.373 (≈ 0.598 µM)	0.55 (≈ 0.881 µM)	1.16 (≈ 1.86 µM)	-1.37	23.2 (≈ 37.2 µM)
COC(=O)CCC[C@@H]1[C@H]2CCCN3CCC[C@@H](CN1C(=O)c1cc4ccc(Cl)cc4n1Cc1ccccc1)[C@@H]23	0.283	0.521 (≈ 0.951 µM)	0.478 (≈ 0.872 µM)	0.844 (≈ 1.54 µM)	1.23 (≈ 2.25 µM)	-0.951	8.94 (≈ 16.3 µM)
OC(Cn1cncn1)(Cn1cncn1)c1ccc(F)cc1F [FLUCONAZOLE]	–	–	–	–	–	–	4.85 (≈ 15.8 µM)
COC(=O)CCC[C@@H]1[C@H]2CCCN3CCC[C@@H](CN1C(=O)c1cc4ccc(Cl)cc4n1Cc1ccccc1[N+](=O)[O-])[C@@H]23	0.876	0.133 (≈ 0.224 µM)	2.86 (≈ 4.82 µM)	0.852 (≈ 1.44 µM)	0.694 (≈ 1.17 µM)	-1.05	11.1 (≈ 18.8 µM)
COC(=O)CCC[C@@H]1[C@H]2CCCN3CCC[C@@H](CN1C(=O)c1cc4ccc(Cl)cc4n1Cc1ccc(Br)cc1)[C@@H]23	0.06	1.15 (≈ 1.83 µM)	0.121 (≈ 0.193 µM)	0.467 (≈ 0.745 µM)	0.762 (≈ 1.22 µM)	-1.14	13.7 (≈ 21.9 µM)
COC(=O)CCC[C@@H]1[C@H]2CCCN3CCC[C@@H](CN1C(=O)c1cc4ccc(Cl)cc4n1Cc1cc(C(C)(C)C)cc(C(C)(C)C)c1)[C@@H]23	1.032	0.093 (≈ 0.141 µM)	0.29 (≈ 0.439 µM)	0.466 (≈ 0.706 µM)	1.49 (≈ 2.25 µM)	-0.955	9.02 (≈ 13.7 µM)
NC[C@H]1O[C@H](O[C@H]2[C@H](O)[C@@H](O[C@H]3O[C@H](CO)[C@@H](O)[C@H](N)[C@H]3O)[C@H](N)C[C@@H]2N)[C@H](O)[C@@H](O)[C@@H]1O.O=S(=O)(O)O [KANAMYCIN SULFATE]	–	–	–	–	0.052	–	–
